Structures can show the parent of a compound that is named as a salt.
Target: Factor Xa (Homo sapiens, UniProt P00742)
Assay: Enzyme assay with purified enzyme and peptide-p-nitroanilide substrate (IC50, apparent Ki)
Format: biochemical
Conditions: library product after deprotection with 20% TFA; read-out: IC50 against Factor Xa
Experimental: All enzyme assays are carried out at room temperature in 96-well microtiter plates using a final enzyme concentration of 1 nM. The concentrations of factor Xa and thrombin are determined by active site titration and the concentrations of all other enzymes are based on the protein concentration supplied by the manufacturer. Compounds according to the invention are dissolved in DMSO, diluted with their respective buffers and assayed at a maximal final DMSO concentration of 1.25%. Compound dilutions are added to wells containing buffer and enzyme and pre-equilibrated for […]. The enzyme reactions are initiated by the addition of substrate and the color developed from the hydrolysis of the peptide-p-nitroanilide substrates is monitored continuously for 5 minutes at 405 nm on a Vmax microplate reader (Molecular Devices). Under these conditions, less than 10% of the substrate is utilized in all assays. […] The apparent Ki values are then determined according to the Cheng-Prusoff equation (IC50=Ki [1+[S]/Km]) assuming competitive inhibition kinetics.

Chain of Factor Xa (P00742 235-488 limits assumed): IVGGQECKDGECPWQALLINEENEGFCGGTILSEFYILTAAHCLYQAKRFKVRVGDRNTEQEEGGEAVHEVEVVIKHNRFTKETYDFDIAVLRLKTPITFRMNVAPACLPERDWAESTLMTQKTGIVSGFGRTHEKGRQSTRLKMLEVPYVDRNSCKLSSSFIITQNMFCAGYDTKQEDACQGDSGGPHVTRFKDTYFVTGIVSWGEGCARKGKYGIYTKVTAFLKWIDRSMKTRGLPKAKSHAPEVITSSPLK
Chain of Factor Xa (P00742 41-179 partner limits assumed): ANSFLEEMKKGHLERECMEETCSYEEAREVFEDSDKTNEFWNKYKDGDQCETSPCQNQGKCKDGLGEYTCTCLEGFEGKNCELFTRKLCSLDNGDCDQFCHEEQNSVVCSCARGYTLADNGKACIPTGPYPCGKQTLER

IC50: < 500 nM
Compound: O=C1[C@@H](NS(=O)(=O)c2cc3ccc(Cl)cc3s2)CCN1Cc1cc2ncccc2[nH]1 [Example 46, 6-Chloro-benzo[b]thiophene-2-sulfonic Acid [2-oxo-1-(1H-Pyrrolo[3,2-b]pyridin-2-ylmethyl)-pyrrolidin-3-(S)-yl]-amide Trifluoroacetate]

— US6602864B1, “Sulfonic acid or sulfonylamino N-(heteroaralkyl)-azaheterocyclylamide compounds” (Aventis Pharma Deutschland GmbH, priority 1996, dated 2003)
